Measured values published in the supplement of paper PMC11061612.

Columns and labels:
[1] = tested on: SUIT-2 (Pancreatic Carcinoma); assay: combination Emax (second highest fraction inhibited in the dose matrix, 72 h); higher = more inhibition; extreme values may be limits of the assay
How it was run: (§1)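 Bliss excess equals the observed combination effect minus the expected value EA + EB − EA·EB, where EA and EB are the effects of each agent alone. Combination Emax is the second-highest inhibition within the matrix. Inhibition was scaled from CellTiter-Glo 2.0 luminescence, with 0 set by vehicle wells and 1 by blank wells, after 72 hours of two-drug dosing of cells plated in 1536-well plates.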

[2] = tested on: HT-29 (Colorectal Carcinoma); assay: as above
How it was run: as §1

[3] = tested on: KARPAS-1106P (B-Cell Non-Hodgkin's Lymphoma); assay: as above
How it was run: as §1

[4] = tested on: NCI-H1299 (Non-Small Cell Lung Carcinoma); assay: as above
How it was run: as §1

[5] = tested on: HPAC (Pancreatic Carcinoma); assay: as above
How it was run: as §1

[6] = tested on: LU-99A (Non-Small Cell Lung Carcinoma); assay: as above
How it was run: as §1

[7] = tested on: SW1783 (Low Grade Glioma); assay: as above
How it was run: as §1

[8] = tested on: DB (B-Cell Non-Hodgkin's Lymphoma); assay: as above
How it was run: as §1

DSH1 (Bladder Carcinoma) = assay: as above
How it was run: as §1

ES7 (Ewing's Sarcoma) = assay: Bliss excess, mean over the matrix (fraction); higher = more synergy
How it was run: as §1

[9] = tested on: G-292-Clone-A141B1 (Osteosarcoma); assay: as above
How it was run: as §1

[10] = tested on: 697 (B-Lymphoblastic Leukemia); assay: as above
How it was run: as §1

RH-1 (Ewing's Sarcoma) = assay: as above
How it was run: as §1

J82 (Bladder Carcinoma) = assay: as above
How it was run: as §1

[11] = tested on: MDA-MB-231 (Breast Carcinoma); assay: as above
How it was run: as §1

[12] = tested on: CFPAC-1 (Pancreatic Carcinoma); assay: as above
How it was run: as §1

[13] = tested on: KM-H2 (Hodgkin's Lymphoma); assay: as above
How it was run: as §1

CAL-78 (Chondrosarcoma) = assay: as above
How it was run: as §1

[14] = tested on: MDA-MB-157 (Breast Carcinoma); assay: as above
How it was run: as §1

[15] = tested on: IHH-4 (Thyroid Gland Carcinoma); assay: as above
How it was run: as §1

Row | Structure (SMILES) | combination Emax [1] | combination Emax [2] | combination Emax [3] | combination Emax [4] | combination Emax [5] | combination Emax [6] | combination Emax [7] | combination Emax [8] | combination Emax (DSH1 (Bladder Carcinoma)) | Bliss excess (ES7 (Ewing's Sarcoma)) | Bliss excess [9] | Bliss excess [10] | Bliss excess (RH-1 (Ewing's Sarcoma)) | Bliss excess (J82 (Bladder Carcinoma)) | Bliss excess [11] | Bliss excess [12] | Bliss excess [13] | Bliss excess (CAL-78 (Chondrosarcoma)) | Bliss excess [14] | Bliss excess [15]
1 | CN(CCO)CC[C@H](CSc1ccccc1)Nc1ccc(S(=O)(=O)NC(=O)c2ccc(N3CCC([C@@H](O)c4ccccc4-c4ccc(Cl)cc4)CC3)cc2)cc1S(=O)(=O)C(F)(F)F [AZD4320] + C=CCn1c(=O)c2cnc(Nc3ccc(N4CCN(C)CC4)cc3)nc2n1-c1cccc(C(C)(C)O)n1 [AZD1775] (first compound max 1 µM, partner max 1 µM) | 0.491 | 0.965 | 0.963 | 0.88 | 1 | 0.762 | 0.531 | 1 | 0.799 | 0.136 | 0.0335 | 0.0545 | 0.0413 | -0.107 | 0.0551 | -0.0373 | -0.006 | 0.073 | 0.0043 | 0.0051
2 | Cc1cc2ncnn2cc1Nc1ncc2c(n1)n(C1CCOCC1)c(=O)n2C [AZD7648] + CN(C)CCCOc1ccc(-c2ccc3ncc4c(c3c2)n(C2CCOCC2)c(=O)n4C)cn1 [AZD0156] (first compound max 10 µM, 7x7, partner max 1 µM) | 0.109 | 0.247 | 0.423 | 0.352 | 0.169 | 0.511 | 0.277 | 0.551 | 0.286 | 0.0271 | -0.0261 | -0.0136 | 0.0087 | -0.0131 | 0.0146 | 0.0064 | 0.0208 | -0.0091 | 0.0406 | 0.0352
3 | COc1nnc2ccc(N3CCC(c4ccc(OCCN5CCN(C)C(=O)[C@H]5C)cc4)CC3)nn12 [AZD5153] + Cn1cnc2c(F)c(Nc3ccc(Br)cc3Cl)c(C(=O)NOCCO)cc21 [Selumetinib] (first compound max 1 µM, 7x7, partner max 10 µM) | 0.558 | 0.848 | 0.699 | 0.729 | 0.82 | 0.949 | 0.246 | 0.761 | 0.683 | -0.0502 | -0.0388 | -0.0389 | -0.0267 | 0.014 | 0.0516 | -0.0149 | -0.0839 | -0.0315 | 0.0292 | 0.0085
4 | CC1(C)CCC(CN2CCN(c3ccc(C(=O)NS(=O)(=O)c4ccc(NCC5CCOCC5)c([N+](=O)[O-])c4)c(Oc4cnc5[nH]ccc5c4)c3)CC2)=C(c2ccc(Cl)cc2)C1 [Venetoclax] + Cn1cnc2c(F)c(Nc3ccc(Br)cc3Cl)c(C(=O)NOCCO)cc21 [Selumetinib] (first compound max 1 µM, 7x7, partner max 3 µM) | 0.26 | 0.64 | 0.476 | 0.202 | 0.559 | 0.324 | 0.124 | 0.914 | 0.341 | -0.0127 | -0.0441 | -0.0001 | -0.0291 | -0.028 | -0.0277 | -0.0142 | -0.0221 | -0.0619 | 0.0208 | -0.0176
5 | COc1nnc2ccc(N3CCC(c4ccc(OCCN5CCN(C)C(=O)[C@H]5C)cc4)CC3)nn12 [AZD5153] + Cc1c2c(nn1C)CSCc1cc(n(C)n1)CSc1cc(c3ccccc3c1)OCCCc1c(C(=O)O)n(C)c3c-2c(Cl)ccc13 [AZD5991] (first compound max 1 µM, 7x7, partner max 1 µM) | 0.462 | 0.716 | 1 | 0.798 | 0.628 | 0.807 | 0.336 | 1 | 1 | 0.0052 | -0.032 | -0.0558 | 0.0034 | 0.0439 | -0.057 | -0.0208 | -0.0495 | -0.0263 | 0.0297 | -0.0329
6 | Cc1c2c(nn1C)CSCc1cc(n(C)n1)CSc1cc(c3ccccc3c1)OCCCc1c(C(=O)O)n(C)c3c-2c(Cl)ccc13 [AZD5991] + C=CCn1c(=O)c2cnc(Nc3ccc(N4CCN(C)CC4)cc3)nc2n1-c1cccc(C(C)(C)O)n1 [AZD1775] (first compound max 1 µM, partner max 1 µM) | 0.555 | 0.877 | 0.997 | 0.83 | 0.857 | 0.428 | 0.322 | 0.999 | 0.791 | 0.0155 | -0.0178 | -0.0264 | -0.0575 | -0.0372 | -0.0812 | 0.0535 | -0.0181 | -0.0193 | 0.001 | 0.02
7 | CC1(C)CCC(CN2CCN(c3ccc(C(=O)NS(=O)(=O)c4ccc(NCC5CCOCC5)c([N+](=O)[O-])c4)c(Oc4cnc5[nH]ccc5c4)c3)CC2)=C(c2ccc(Cl)cc2)C1 [Venetoclax] + COc1cc(Nc2ncc3c(n2)-c2ccc(Cl)cc2C(c2c(F)cccc2OC)=NC3)ccc1C(=O)O [Alisertib] (first compound max 1 µM, 7x7, partner max 10 µM) | 0.106 | 0.418 | 0.713 | 0.385 | 0.688 | 0.44 | 0.634 | 0.949 | 0.53 | 0.0686 | -0.0793 | 0.0193 | -0.0065 | -0.0336 | 0.0102 | -0.0475 | 0.145 | -0.0353 | 0.014 | -0.0216
8 | CC(=O)c1c(C)c2cnc(Nc3ccc(N4CCNCC4)cn3)nc2n(C2CCCC2)c1=O [Palbociclib] + CC1(C)CCC(CN2CCN(c3ccc(C(=O)NS(=O)(=O)c4ccc(NCC5CCOCC5)c([N+](=O)[O-])c4)c(Oc4cnc5[nH]ccc5c4)c3)CC2)=C(c2ccc(Cl)cc2)C1 [Venetoclax] (first compound max 10 µM, 7x7, partner max 1 µM) | 0.0936 | 0.399 | 0.599 | 0.326 | 0.204 | 0.319 | 0.0456 | 0.962 | 0.439 | 0.0277 | -0.0368 | -0.0738 | 0.0175 | -0.0388 | -0.0242 | 0.015 | -0.0011 | -0.0333 | -0.0348 | 0.0096
9 | Cc1c2c(nn1C)CSCc1cc(n(C)n1)CSc1cc(c3ccccc3c1)OCCCc1c(C(=O)O)n(C)c3c-2c(Cl)ccc13 [AZD5991] + Cn1cnc2c(F)c(Nc3ccc(Br)cc3Cl)c(C(=O)NOCCO)cc21 [Selumetinib] (first compound max 1 µM, 7x7, partner max 3 µM) | 0.285 | 0.706 | 0.979 | 0.3 | 0.673 | 0.379 | 0.211 | 1 | 0.489 | 0.0375 | -0.0558 | -0.0462 | -0.0127 | -0.0073 | 0.0135 | 0.0044 | 0.0029 | -0.0288 | -0.0098 | -0.026
10 | COc1cccc(OCCCN)c1-c1cc(Nc2cnc(C#N)cn2)n[nH]1 [Prexasertib] + O=C(c1cc(Cc2n[nH]c(=O)c3ccccc23)ccc1F)N1CCN(C(=O)C2CC2)CC1 [Olaparib] (first compound max 1 µM, 7x7, partner max 10 µM) | 0.682 | 0.84 | 0.897 | 0.694 | 0.593 | 0.765 | 0.508 | 0.687 | 0.688 | 0.0058 | -0.0443 | 0.0371 | -0.0203 | 0.033 | -0.127 | -0.0834 | -0.0611 | -0.0535 | -0.104 | -0.0827
11 | COc1cccc(OCCCN)c1-c1cc(Nc2cnc(C#N)cn2)n[nH]1 [Prexasertib] + C=CCn1c(=O)c2cnc(Nc3ccc(N4CCN(C)CC4)cc3)nc2n1-c1cccc(C(C)(C)O)n1 [AZD1775] (first compound max 1 µM, partner max 1 µM) | 0.707 | 0.844 | 0.949 | 0.799 | 0.792 | 0.806 | 0.549 | 0.945 | 0.84 | 0.0597 | 0.028 | 0.0316 | 0.0653 | 0.096 | 0.124 | -0.0145 | 0.077 | -0.0422 | 0.0628 | 0.136
12 | NC1(C(=O)N[C@@H](CCO)c2ccc(Cl)cc2)CCN(c2ncnc3[nH]ccc23)CC1 [Capivasertib] + COc1nnc2ccc(N3CCC(c4ccc(OCCN5CCN(C)C(=O)[C@H]5C)cc4)CC3)nn12 [AZD5153] (first compound max 10 µM, 7x7, partner max 1 µM) | 0.535 | 0.753 | 0.979 | 0.669 | 0.68 | 0.665 | 0.473 | 0.669 | 0.941 | 0.104 | 0.0249 | -0.065 | 0.0517 | 0.0421 | -0.009 | 0.0332 | 0.0144 | 0.0536 | 0.0204 | 0.0199
13 | C=CCn1c(=O)c2cnc(Nc3ccc(N4CCN(C)CC4)cc3)nc2n1-c1cccc(C(C)(C)O)n1 [AZD1775] + C[C@@H]1COCCN1C2=NC(=NC(=C2)C3(CC3)[S@](=N)(=O)C)C4=C5C=CNC5=NC=C4 [AZD6738] (first compound max 1 µM, partner max 10 µM) | 0.728 | 0.858 | 0.886 | 0.889 | 0.705 | 0.694 | 0.41 | 0.934 | 0.862 | 0.0753 | -0.0665 | 0.047 | 0.0329 | 0.0305 | 0.0726 | -0.0369 | 0.0647 | 0.0171 | 0.0217 | 0.0534
